Literature values as cited in article PMC2908260 (Journal of nuclear medicine : official publication, Society …, 2010).

Details: other ^18F-labeled octreotide analogues

## N^α-(1-deoxy-D-fructosyl)-N^ε-(2-[^18F]fluoropropionyl)-Lys^0-Tyr^3octreotate [[^18F]FP-Gluc-TOCA]
  log P: −1.70 ± 0.02
